In patent publication US20240358692A1, “TREATMENT OF SCLERODERMA” (Aisa Pharma, Inc., priority 2023, published 2024):

Experiments:
Assay type in all cases: in vivo, human
participants with SSc-RP [1] = assay: Average pain score recorded during weekly RP attacks (11-point Likert scale); settings: Tadalafil 5 mg (n = 4); Table G
From the text: The absolute change in average pain score (11-point Likert scale) of weekly RP attacks from baseline to the end of each Dosing Period will be a secondary outcome variable. The sponsor-developed participant-informed diary will be used to record data. The average pain score of weekly RP attacks is defined as the total pain scores divided by total number of RP attacks within the last 7 days of each dosing period. Average of the last 7 days of screening assessments will be used as baseline for the analysis of all periods. The variable will be calculated similar to frequency data as before.

participants with SSc-RP [2] = assay: SHAQ - Alternative Disability Index
From the text: The SHAQ is used to calculate a Disability Index to assess the participant qualify of life. The eight categories assessed by the Disability Index are 1) dressing and grooming, 2) arising, 3) eating, 4) walking, 5) hygiene, 6) reach, 7) grip, and 8) common daily activities. For each of these categories, patients report the amount of difficulty they have in performing two or three specific activities.
There are four possible responses for the Disability Index questions: • Without any difficulty=0 • With some difficulty=1 • With much difficulty=2 • Unable to do=3 • The highest score reported by the patient for any component question of the eight categories determines the score for that category. • If a component question is left blank or the response is too ambiguous to assign a score, then the score for that category is determined by the remaining completed question(s). • If all component questions are blank or if more than one answer is given, then follow up with the respondent is required. • If the respondent's mark is between the response columns, then move it to the closest one. If it's directly between the two, move it to the higher one.
The aid and device variables are not used to calculate the alternative disability index; it is calculated by adding the scores for each of the categories and dividing by the number of categories answered. This gives a score in the 0 to 3 range.

participants with SSc-RP [3] = assay: SHAQ - Visual Analog Scale - Raynaud's
From the text: The SHAQ includes a Raynaud's VAS, which will be reported at screening and each in-clinic visit. The absolute change in Raynaud-VAS, assessed by the participants response to the SHAQ question ‘In the past 7 days, how much have your Raynaud's interfered with your daily activities?’ at baseline and the end of each dosing period will be calculated similar to frequency data as before.
The standard, validated, patient reported outcome measures tool for SSc patients, the SHAQ, was collected at the time points specified in the study schedules (FIG. 2 and FIGS. 4A and 4B) to assess the participant's quality of life. The SHAQ included a Raynaud's VAS that will also be reported separately.

[4] = Modified ITT Population-Part A, Day 12, dose cilnidipine 10 mg, tadalafil 5 mg, alone or combined as labelled
[5] = Modified ITT Population-Part A, dose cilnidipine 10 mg, tadalafil 5 mg, alone or combined as labelled
[6] = Tadalafil 5 mg, SSc patients, PP, Part A

Q: For `CN1CC(=O)N2[C@H](c3ccc4c(c3)OCO4)c3[nH]c4ccccc4c3C[C@@H]2C1=O` [Tadalafil], which “Average Pain Score Change From Baseline [Mean (SD)]” value (participants with SSc-RP [1]) is on record?
A: The value was 0.37.

Q: What about the “alternative disability index, Change from Baseline, Mean” value (participants with SSc-RP [2]; [4]) of the same compound?
A: The value was −0.094.

Q: What about the “alternative disability index, Change from Baseline, Median” value (participants with SSc-RP [2]; [4]) of the same compound?
A: Its value is −0.125.

Q: What about the “alternative disability index, Percent Change from Baseline, Mean” value (participants with SSc-RP [2]; [4]) of the same compound?
A: The value was −43.70%.

Q: What about the “alternative disability index, Percent Change from Baseline, Median” value (participants with SSc-RP [2]; [4]) of the same compound?
A: The value was −20.00%.

Q: What about the “alternative disability index, In Clinic Visit (Day 12), Mean” value (participants with SSc-RP [2]; [5]) of the same compound?
A: The value was 0.375.

Q: And the “alternative disability index, In Clinic Visit (Day 12), Median” value (participants with SSc-RP [2]; [5])?
A: The value was 0.250.

Q: And the “SHAQ Alternative Disability Index, Change from Baseline, Max” value (participants with SSc-RP [2]; [6])?
A: The value was 0.00.

Q: And the “SHAQ Alternative Disability Index, Change from Baseline, Mean” value (participants with SSc-RP [2]; [6])?
A: Its value is −0.094.

Q: And the “SHAQ Alternative Disability Index, Change from Baseline, Median” value (participants with SSc-RP [2]; [6])?
A: The value was −0.125.

Q: And the “SHAQ Alternative Disability Index, Change from Baseline, Min” value (participants with SSc-RP [2]; [6])?
A: Its value is −0.13,.

Q: And the “SHAQ Alternative Disability Index, Change from Baseline, Q3” value (participants with SSc-RP [2]; [6])?
A: The value was −0.063.

Q: And the “SHAQ Alternative Disability Index, Day 12, Max” value (participants with SSc-RP [2]; [6])?
A: The value was 1.00.

Q: And the “SHAQ Alternative Disability Index, Day 12, Mean” value (participants with SSc-RP [2]; [6])?
A: The value was 0.375.

Q: And the “SHAQ Alternative Disability Index, Day 12, Median” value (participants with SSc-RP [2]; [6])?
A: The value was 0.250.

Q: And the “SHAQ Alternative Disability Index, Day 12, Min” value (participants with SSc-RP [2]; [6])?
A: Its value is 0.00,.

Q: What about the “SHAQ Alternative Disability Index, Day 12, Q1” value (participants with SSc-RP [2]; [6]) of the same compound?
A: Its value is 0.000,.

Q: What about the “SHAQ Alternative Disability Index, Day 12, Q3” value (participants with SSc-RP [2]; [6]) of the same compound?
A: The value was 0.750.

Q: What about the “SHAQ Alternative Disability Index, Percent Change from Baseline, Max” value (participants with SSc-RP [2]; [6]) of the same compound?
A: Its value is −11.1.

Q: And the “SHAQ Alternative Disability Index, Percent Change from Baseline, Mean” value (participants with SSc-RP [2]; [6])?
A: The value was −43.70.

Q: What about the “SHAQ Alternative Disability Index, Percent Change from Baseline, Median” value (participants with SSc-RP [2]; [6]) of the same compound?
A: Its value is −20.00.

Q: And the “SHAQ Alternative Disability Index, Percent Change from Baseline, Min” value (participants with SSc-RP [2]; [6])?
A: Its value is −100.0,.

Q: What about the “SHAQ Alternative Disability Index, Percent Change from Baseline, Q1” value (participants with SSc-RP [2]; [6]) of the same compound?
A: The value was −100.00,.

Q: And the “SHAQ Alternative Disability Index, Percent Change from Baseline, Q3” value (participants with SSc-RP [2]; [6])?
A: The value was −11.11.

Q: And the “SHAQ Visual Analogue Scale - Raynaud's, Change from Baseline, Median” value (participants with SSc-RP [3]; Tadalafil 5 mg (N = 5), Day 12, PP Population, Part A)?
A: The value was −0.500.

Q: And the “VAS Raynaud's Change from Baseline Max” value (participants with SSc-RP [3]; tadalafil 5 mg)?
A: The value was −0.10.

Q: And the “VAS Raynaud's Change from Baseline Mean” value (participants with SSc-RP [3]; tadalafil 5 mg)?
A: Its value is −0.825.

Q: And the “VAS Raynaud's Change from Baseline Median” value (participants with SSc-RP [3]; tadalafil 5 mg)?
A: The value was −0.500.

Q: And the “VAS Raynaud's Change from Baseline Min” value (participants with SSc-RP [3]; tadalafil 5 mg)?
A: The value was −2.20.

Q: And the “VAS Raynaud's Change from Baseline Q1” value (participants with SSc-RP [3]; tadalafil 5 mg)?
A: The value was −1.500.

Q: What about the “VAS Raynaud's Change from Baseline Q3” value (participants with SSc-RP [3]; tadalafil 5 mg) of the same compound?
A: Its value is −0.150.

Q: And the “VAS Raynaud's Day 12 Max” value (participants with SSc-RP [3]; tadalafil 5 mg)?
A: The value was 9.20.

Q: What about the “VAS Raynaud's Day 12 Median” value (participants with SSc-RP [3]; tadalafil 5 mg) of the same compound?
A: The value was 5.200.

Q: What about the “VAS Raynaud's Day 12 Min” value (participants with SSc-RP [3]; tadalafil 5 mg) of the same compound?
A: Its value is 0.20.

Q: And the “VAS Raynaud's Day 12 Q1” value (participants with SSc-RP [3]; tadalafil 5 mg)?
A: Its value is 2.200.

Q: What about the “VAS Raynaud's Day 12 Q3” value (participants with SSc-RP [3]; tadalafil 5 mg) of the same compound?
A: The value was 7.700.

Q: What about the “VAS Raynaud's Percent Change from Baseline Max” value (participants with SSc-RP [3]; tadalafil 5 mg) of the same compound?
A: Its value is −3.1%.

Q: What about the “VAS Raynaud's Percent Change from Baseline Mean” value (participants with SSc-RP [3]; tadalafil 5 mg) of the same compound?
A: Its value is −19.71%.

Q: And the “VAS Raynaud's Percent Change from Baseline Median” value (participants with SSc-RP [3]; tadalafil 5 mg)?
A: Its value is −20.67%.

Q: What about the “VAS Raynaud's Percent Change from Baseline Min” value (participants with SSc-RP [3]; tadalafil 5 mg) of the same compound?
A: The value was −34.4%.

Q: What about the “VAS Raynaud's Percent Change from Baseline Q1” value (participants with SSc-RP [3]; tadalafil 5 mg) of the same compound?
A: The value was −33.85%.

Q: What about the “VAS Raynaud's Percent Change from Baseline Q3” value (participants with SSc-RP [3]; tadalafil 5 mg) of the same compound?
A: The value was −5.56%.
